Laboratory results from patent US20230121771A1, “A PHARMACEUTICAL COMBINATION OF AN ARTEMISININ COMPOUND, 5-AMINOLEVULINIC ACID OR METHYL-5-AMINOLEVULINIC ACID AND A CHEMOTHERAPEUTIC AGENT” (JLP Health GmbH, priority 2020, published 2023).

What was measured:
Jurkat cells = assay: JC-1 staining of mitochondrial membrane potential; type: cell-based; details: 48 h, artemisinin 0.5 µM, 5-ALA 0.25 mM
Procedure: Cells were collected, washed with 1xPBS, incubated with 2 µM JC-1 in 1PBS (MitoProbe JC-1 Assay Kit-1, Invitrogen, M34152) for 35 min at 37° C., washed twice, and analysed using flow cytometry in the red (PE channel) and green (FITC channel) fluorescence spectrum.

[1] = system: neuroblastoma cells (SHSY5Y), Jurkat cells; assay: Cell survival by automated cell counting in SHSY5Y and Jurkat cells; type: cell-based; details: artemisinin 0.5 µM, 5-ALA 0.25 mM
Procedure: (§1) For dosage responses, cells were seeded in 96-wells (25.000/ 96-well, in triplicate -where indicated) and subjected to compounds for 48 h. Cell viability was assessed using automated cell counting (high-throughput flow cytometry), Alamar Blue staining (Invitrogen, DAL1100) or CellTiter-Glo Luminescent Assay (Promega, G7570, according to the manufacturer’s protocol) respectively.

[2] = system: human cerebral tumor organoids (CNS-PNET); assay: Compound profiling in CNS-PNET cerebral tumor organoids (GFP-positive tumor cells); type: cell-based
Procedure: Tumor initiation was induced by either oncogene amplification, using a Sleeping Beauty (SB) transposase, or mutation of tumor suppressor genes, using the CRISPR-Cas9 system in day 10 old embryoid bodies (EBs). Plasmids carrying the transposase as well as GFP and the desired oncogenes or expressing Cas9 nuclease were introduced by electroporation. In brief, a mixture of 1 μg DNA and 100 μl nucleofector solution was added to 10 EBs and transferred to a nucleofection cuvette. The Lonza Nucleofector 2b and the A-023 program were used for electroporation/ nucleofection. Thereafter, EBs were transferred into 10 cm dishes containing differentiation media containing vitamin A and embedded into Matrigel 24 hours later. Two different types of tumors were initiated {Bian:2018gs}: Central nervous system primitive neuroectodermal tumors (CNS-PNET) were induced by the overexpression of Myc. Glioblastoma-like tumor group 2 (GBM-2) was caused by mutagenesis of the tumor suppressor genes p53, NF1 and PTEN. All plasmids were designed by Shan Bian {Bian, S. et al. Genetically engineered cerebral organoids model brain tumor formation. Nat. Methods 15, 631-639 (2018)}. Cerebral tumor organoids were treated with different compounds and the survival and growth of transformed as well as untransformed neurons was monitored. Fluorescence labeling of tumor cells allowed clear distinguishability of transformed cells as compared to non-labeled throughout the experiment using brightfield microscopy, as well as fluorescence imaging. The transformed tumor tissue and untransformed neurons within the same organoid was monitored using fluorescence imaging, as well as brightfield microscopy throughout the experiment. At the endpoint of the treatment (d5 or d7 respectively), the number of GFP-positive cells was assessed by flow cytometry. Cerebral (tumor) organoids were enzymatically and mechanically dissociated using 1x trypsin, 35-45 min incubation at 37° C., and gentle shaking. […] Single cells in suspension were counterstained with DAPI or a viability dye (eBioscienceTM Fixable Viability Dye eFluorTM 780, 65-0865-18), and analysed using flow cytometry (BD LSRFortessa HTS Cell Analyzer). The amounts of GFP-positive cells were analyzed. […] Brightfield and green fluorescence images were taken from the same area. Additionally, for image analyses, the Celldiscoverer 7 (Zeiss), a fully integrated high-end automated live cell imaging system, was used. Cerebral organoids were fixed in 4% PFA (room temperature, 1 h), incubated with 30% sucrose (4° C., o/n), OCT (Tissue-tek OCT Compound, […], 4583) embedded and 20 μm sections were cryostat cut (-12/-14° C.). […] Fluorescence Mounting Medium (Dako, S302380) was used for mounting the sample slides. […]

[3] = system: Myc overexpressing tumor organoids; assay: ROS/DHE staining of dissociated CNS-PNET tumor organoids; type: cell-based, human; details: especially in GFP-positive cancer cells
Procedure: Treated cells were collected, washed with 1x HBSS (without Ca2+ and Mg2+), incubated with 1mM DHE (Dihydroethidium (Hydroethidine), Invitrogen, D11347) in 1x HBSS for 45 min at 37° C., washed twice and counterstained with DAPI or a viability dye (eBioscience™ Fixable Viability Dye eFluor™ 780, 65-0865-18) for 10 min on ice. Cells were then collected, strained and analysed using flow cytometry for DHE in the red fluorescent spectrum (PE channel).
Cerebral (tumor) organoids were enzymatically and mechanically dissociated using 1x trypsin, 35-45 min incubation at 37° C., and gentle shaking. Organoids were singularised by careful resuspension, addition of differentiation medium and straining (Falcon Round-Bottom Tubes with Cell Strainer Cap, 5 mL, 35 µm nylon mesh cell strainer snap cap). Single cells in suspension were counterstained with DAPI or a viability dye (eBioscience™ Fixable Viability Dye eFluor™ 780, 65-0865-18), and analysed using flow cytometry (BD LSRFortessa HTS Cell Analyzer). The amounts of GFP-positive cells were analyzed.

[4] = system: murine and human cancer cell lines; assay: Cell viability of artemisinin treated cancer cell lines in presence and absence of 5-ALA (Alamar Blue, 48 h); type: cell-based; details: 4T1, Mcf7, B16F10, 5-ALA 0.5 mM
Procedure: as §1

NCC(=O)CCC(=O)O [5-ALA, 5-amino-4-oxopentanoic acid]
mitochondrial polarisation (ΔΨm, JC-1) (Jurkat cells): increased mitochondrial polarisation | cell viability / cell death [1]: slightly reduced cell viability | GFP+ tumor tissue, immunohistochemistry of sectioned organoids [2]: losss of GFP+ tumor tissue | effect on non-transformed neuronal tissues in the cerebral organoids ([2]; Sox2 expressing cells, rosette-like structures): no apparent effect on the non-transformed neuronal tissues | growth of GFP-positive tumor organoids ([2]; very high concentrations, compound alone): notable growth inhibition | ROS levels (DHE staining, FACS) [3]: slightly induced ROS production | sensitivity to artemisinin under combinatorial treatment with 5-ALA [4]: gained hypersensitive to artemisinin
